Reference: patent publication US20230158057A1, “COMPOSITIONS AND METHODS FOR THE TREATMENT OF PAIN” (Duke University, priority 2020, published 2023)
“Also recorded” adds a separate entry of the source.

Experiments:
Assay type in all cases: in vivo, mouse
tumor-bearing femora = assay: Bone fractures of tumor-bearing femora on d17 after LLC inoculation; details: vehicle 87.5%
Experimental: Development and progression of cancer-induced osteolytic bone destruction frequently leads to bone fracture, which is an important component of SREs in patients with bone metastasis and is associated with decreased overall survival. On d17 after LLC inoculation, mice were euthanized and the tumor bearing femora were collected and the distal tumor-bearing femur where bone destruction occurs was analyzed.

mice with CIPN = assay: Chemotherapy-induced peripheral neuropathy (CIPN) model established with paclitaxel; details: i.p., 24 h after the 2nd injection
Experimental: Mouse pain models: The chemotherapy-induced peripheral neuropathy (CIPN) model of chronic neuropathic pain was established as we have done previously, using 8-10-week-old CD-1 (strain #022, Charles River) mice injected with paclitaxel (2 mg/kg i.p.) every other day, with 4 injections total. The chronic constriction injury (CCI) model of neuropathic pain was also produced using 8-10-week-old CD-1 under isoflurane anesthesia. Briefly, the right sciatic nerve was exposed above the hip and two ligatures (7-0 Prolene) were placed around the nerve 1 mm apart located proximal to the trifurcation. Ligatures were loosely tied until a subtle flick of the ipsilateral hind limb was observed. CD-1 mice were also used to establish the SNI model, which was generated by tightly ligating the tibial and common peroneal nerves followed by transection and removal of a ˜3 mm portion of the nerve. […] All mice were housed and monitored in accordance with AAALAC standards and Duke IACUC guidelines that pertained to each model.
Reflexive-based sensory testing in mice: All behavioral testing in mice was performed in a specialized humidity- and light-controlled mouse behavior facility maintained at 21-24° C., with testing conducted between the hours of 8:00-16:00. […] We determined the 50% paw withdrawal threshold using the up-down method. […]

IFN-β = IFN-β ELISA in serum and bone marrow lysate after i.p. STING agonist, LLC model; details: for serum IFN-β levels: 4 h after i.p. 20 mg/kg; for IFN-β in bone marrow (BM) lysate: 4 h after i.p., d3
Experimental: ELISA. Mouse high-sensitivity IFN-α ELISA kit (42115-1) and IFN-β ELISA kit (42410-1) were purchased from PBL Assay Science. Mouse CTX-I ELISA kit (AC-06F1) and mouse PINP ELISA kit (AC-33F1) were purchased from Immunodiagnostic Systems. ELISA was performed using culture medium, serum, and bone marrow lysates. Serum was obtained from whole blood that was collected from a submandibular vein via facial vein puncture, coagulated for 30 minutes at room temperature, followed by centrifugation (2,000 ×g for 10 min, 4° C.) and collection of the supernatant (serum). Bone marrow was homogenized in a lysis buffer containing protease inhibitors at 4° C. for 30 minutes. ELISA was conducted in accordance with the manufacturer's instructions. A standard curve was performed for each experiment.

naïve mice = assay: Von Frey testing of mechanical thresholds in naïve mice (WT and knockout); details: naïve mice; for dose exhibiting the largest increase in paw withdrawal thresholds: i.t.; for mechanical sensory thresholds (von Frey): i.t. injection
Experimental: Reflexive-based sensory testing in mice: All behavioral testing in mice was performed in a specialized humidity- and light-controlled mouse behavior facility maintained at 21-24° C., with testing conducted between the hours of 8:00-16:00. Mice were habituated to the testing environment for at least 2 days prior to baseline testing. All tests were performed by an experimenter who was blinded to experimental conditions, including genotypes and drug treatment. For multi-day experiments using STING agonists, mice were tested in the same room at approximately the same time each day. To measure mechanical sensitivity, mice were confined to individual chambers with non-transparent borders on an elevated mesh rack, preventing mice from visualizing or interacting with one another during the testing period. Mouse hindpaws were stimulated with a series of von Frey filaments with logarithmically increasing stiffness (0.02-2.56 g, Stoelting), which was applied perpendicularly to the central plantar surface. We determined the 50% paw withdrawal threshold using the up-down method. […] To test cold sensitivity, mice were again placed on an elevated metal mesh floor in isolated chambers, and a ˜20 μl acetone drop was applied to the central plantar surface of the mouse hindpaw using a pipette.
For the experiments utilizing i.t. 2′3′-cGAMP and 3′3′-cGAMP complexed with Lipofectamine 2000 (ThermoFisher, 11668), 10 μg 2′3′-cGAMP or 3′3′-cGAMP was incubated at room temperature for 30 minutes in sterile PBS with 3 μl Lipofectamine 2000. In this case, the vehicle control was 3 μl Lipofectamine 2000 in PBS, as in a previous study which used this approach. […] For experiments utilizing rabbit anti-IFN-α or -β neutralizing antibodies, a polyclonal rabbit IgG antibody served as the control. Antibodies were utilized in vivo at 300 ng/mouse or in vitro at 300 ng/ml. Paclitaxel was administered via repeated i.p. injections every other day for 4 days at a dose of 2 mg/kg. For the whole mount DRG recordings, young mice (4-6 weeks) were administered a single 6 mg/kg dose one week prior to the experiment. All intrathecal injections were performed under brief anesthesia with 2-2.5% isoflurane. Drugs administered by intrathecal injection were preceded by shaving a small area on the back corresponding to the injection site, followed by spinal puncture using a 30-gauge needle between the L5-L6 levels to deliver a maximum of 5-10 μl into the cerebrospinal fluid. Successful intrathecal injection was always confirmed by a brisk tail-flick upon delivery. For the experiments involving intraplantar (i.pl.) injection, IFN-α was dissolved in sterile saline and administered at the concentrations indicated in the figures in a total volume of 20 μl, administered under 2-2.5% isoflurane anesthesia to minimize animal stress. For these experiments, vehicle (saline) or IFN-α were slowly and carefully expressed into the left dorsal hindpaw of anesthetized mice and allowed to perfuse the tissue for ˜20 seconds prior to removal of the needle. […] Mechanical sensory testing was done anteriorly and care was taken to avoid Von Frey filament stimulation of the injection site.

[1] = tested on: mice with LLC bone cancer pain (BCP); assay: Syngeneic bone cancer pain (BCP) model, i.t. treatment
Experimental: Mouse pain models: The chemotherapy-induced peripheral neuropathy (CIPN) model of chronic neuropathic pain was established as we have done previously, using 8-10-week-old CD-1 (strain #022, Charles River) mice injected with paclitaxel (2 mg/kg i.p.) every other day, with 4 injections total. The chronic constriction injury (CCI) model of neuropathic pain was also produced using 8-10-week-old CD-1 under isoflurane anesthesia. Briefly, the right sciatic nerve was exposed above the hip and two ligatures (7-0 Prolene) were placed around the nerve 1 mm apart located proximal to the trifurcation. Ligatures were loosely tied until a subtle flick of the ipsilateral hind limb was observed. CD-1 mice were also used to establish the SNI model, which was generated by tightly ligating the tibial and common peroneal nerves followed by transection and removal of a ˜3 mm portion of the nerve. The sural nerve was left intact and contact or stretching of this nerve was avoided . To establish the syngeneic bone cancer pain (BCP) model, 8-10-week-old C57BL/6J mice (strain #000664, Jackson Labs) were utilized, as the Lewis lung carcinoma cell line LLC1 (LL/2; ATCC CRL-1642) was originally generated in C57BL/6J mice. Mice were anesthetized with isoflurane and the left leg was shaved, disinfected with 10% povidone-iodine, and a 1 cm superficial incision was made to expose the patellar ligament. A 25-gauge needle was inserted at the intercondylar notch of the left femur into the femoral cavity, followed by needle replacement with a 10 μl Hamilton syringe microinjector containing a 2 μl suspension of LLC cells (2×10^5 cells) followed by a 2 μl gelatin sponge solution to enable closure of the injection site. All mice were housed and monitored in accordance with AAALAC standards and Duke IACUC guidelines that pertained to each model.
Reflexive-based sensory testing in mice: All behavioral testing in mice was performed in a specialized humidity- and light-controlled mouse behavior facility maintained at 21-24° C., with testing conducted between the hours of 8:00-16:00. Mice were habituated to the testing environment for at least 2 days prior to baseline testing. All tests were performed by an experimenter who was blinded to experimental conditions, including genotypes and drug treatment. For multi-day experiments using STING agonists, mice were tested in the same room at approximately the same time each day. To measure mechanical sensitivity, mice were confined to individual chambers with non-transparent borders on an elevated mesh rack, preventing mice from visualizing or interacting with one another during the testing period. […] We determined the 50% paw withdrawal threshold using the up-down method. […]

| SMILES | mice with distal bone fractures (tumor-bearing femora) [%] | deaths (toxicity with systemic administration) (mice with CIPN) | serum IFN-β levels (IFN-β) | IFN-β in bone marrow (BM) lysate (IFN-β) | dose exhibiting the largest increase in paw withdrawal thresholds (naïve mice) [µg] | mechanical sensory thresholds (von Frey) (naïve mice) | cold allodynia [1] | tumor burden [1] |
| --- | --- | --- | --- | --- | --- | --- | --- | --- |
| Nc1ncnc2c1ncn2[C@@H]1O[C@@H]2COP(=O)([S-])O[C@@H]3[C@H](O)[C@@H](COP([O-])(=S)O[C@H]2[C@H]1O)O[C@H]3n1cnc2c(N)ncnc21.[Na+].[Na+] (stereo partly drawn) [ADU-S100, (2′-5′)-[P(R)]-5′-O-[(R)-hydroxymercaptophosphinyl]-P-thioadenylyl-adenosine cyclic dinucleotide] | 0 | No mice died | dramatically upregulated | sharply increased | 25 | induced dose-dependent antinociception | suppressed cold allodynia | tumor burden was unaffected |
| Cc1ccc2c(=O)c3cccc(CC(=O)O)c3oc2c1C [DMXAA, 2-(5,6-dimethyl-9-oxo-9H-xanthen-4-yl)acetic acid] | 12.5 | 3 mice | dramatically upregulated | sharply increased | 10 | induced dose-dependent antinociception; also recorded: dose-dependent increase in paw withdrawal thresholds | suppressed cold allodynia | tumor burden was unaffected |
